Reference: patent publication US20140364431A1, “Quinoline and cinnoline derivatives and their applications” (Shenyang Pharmaceutical University, priority 2011, published 2014)
≈ marks a conversion by molar mass, not a printed value. Where two headings read alike, the source gives them in different places.

What was measured:
[1] = target: T1, c-Met (His-tagged recombinant human Met (Amino acids 974-ends)) (Homo sapiens, UniProt P08581); test: c-Met kinase assay (ELISA); type: biochemical; details: 50 pM c-Met, 5 μM ATP, 20 min
T1 construct: His-tagged recombinant human Met (Amino acids 974-ends); His; host or cells: baculovirus expression
Experimental: c-Met kinase activity was measured with an ELISA reader.
The reaction mixture was removed by washing with 0.2 μg/mL conjugated horseradish peroxidase (HRP) monoclonal antibody specific for phosphotyrosine (PY20) detecting phosphorylation of the substrate polymer. 1M phosphoric acid was added to terminate the color, the chromogenic substrate (TMB) was tested by spectrophotometry at 450 nm.

[2] = tested on: HT-29 (colon cancer cell); test: In vitro anti-tumor cellular activity (MTT), HT-29; type: cell-based, human; details: Homo sapiens, read-out: HT-29 IC50
[3] = tested on: H460 (human lung cancer cell); test: In vitro anti-tumor cellular activity (MTT), H460; type: cell-based; details: Homo sapiens, read-out: H460 IC50
[4] = tested on: U87MG (Human malignant glioblastoma cells); test: In vitro anti-tumor cellular activity (MTT), U87MG; type: cell-based; details: Homo sapiens, U-87 MG, read-out: U87MG IC50
[5] = tested on: MKN-45 (human gastric carcinoma cell); test: In vitro anti-tumor cellular activity (MTT), MKN-45; type: cell-based; details: Homo sapiens, read-out: MKN-45 IC50
[6] = tested on: SMMC-7721 (hepatoma cell); test: In vitro anti-tumor cellular activity (MTT), SMMC-7721; type: cell-based, human; details: Homo sapiens, read-out: SMMC-7721 IC50

T1 sequence (P08581 974-1390 limits assumed): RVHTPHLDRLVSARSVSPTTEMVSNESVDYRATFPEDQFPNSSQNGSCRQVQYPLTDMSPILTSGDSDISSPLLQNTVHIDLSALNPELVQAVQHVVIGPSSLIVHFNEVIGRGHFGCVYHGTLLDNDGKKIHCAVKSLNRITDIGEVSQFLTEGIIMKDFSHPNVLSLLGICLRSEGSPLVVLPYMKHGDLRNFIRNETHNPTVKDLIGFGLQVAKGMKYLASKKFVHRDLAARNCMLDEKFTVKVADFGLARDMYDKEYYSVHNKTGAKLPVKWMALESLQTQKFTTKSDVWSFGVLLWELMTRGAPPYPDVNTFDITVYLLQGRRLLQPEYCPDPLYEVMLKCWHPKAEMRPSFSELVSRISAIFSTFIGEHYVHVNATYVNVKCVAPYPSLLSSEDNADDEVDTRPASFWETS

Row | Compound | IC50 [1] [nM] | IC50 ([2]; MTT, 72 hours, HT-29) [µg/mL] | IC50 ([3]; NCI-H460, MTT, 72 hours, H460) [µg/mL] | IC50 ([4]; MTT, 72 hours, U87MG) [µg/mL] | IC50 ([5]; MTT, 72 hours, MKN-45) [µg/mL] | IC50 ([6]; MTT, 72 hours, SMMC-7721) [µg/mL] | IC50 ([2]; HT-29, 72 h) [µg/mL] | IC50 ([3]; NCI-H460, 72 h) [µg/mL] | IC50 ([4]; 72 h) [µg/mL] | IC50 ([5]; MKN-45, 72 h) [µg/mL] | IC50 ([6]; SMMC-7721, 72 h) [µg/mL]
1 | COc1cc2c(Oc3ccc(NC(=O)c4cn(-c5ccccc5F)c5ccccc5c4=O)cc3F)ccnc2cc1OCCCN1CCN(C)CC1 [Example 52, N-(3-fluoro-4-((6-methoxy-7-(3-(4-methylpiperazin-1-yl)propoxy)quinolin-4-yl)oxy)phenyl)-1-(2-fluorophenyl)-4-oxo-1,4-dihydroquinoline-3-carboxamide] | 2270 | 1.1 (≈ 1.56 µM) | 1.4 (≈ 1.98 µM) | 0.87 (≈ 1.23 µM) | 0.67 (≈ 0.949 µM) | 1.8 (≈ 2.55 µM) | – | – | – | – | –
2 | COc1cc2c(Oc3ccc(NC(=O)c4cn(-c5ccccc5Cl)c5ccccc5c4=O)cc3F)ccnc2cc1OCCCN1CCCCC1 [Example 53, N-(3-fluoro-4-((6-methoxy-7-(3-(piperidin-1-yl)propoxy)quinolin-4-yl)oxy)phenyl)-1-(2-chlorophenyl)-4-oxo-1,4-dihydroquinoline-3-carboxamide] | 707 | 0.93 (≈ 1.32 µM) | 0.79 (≈ 1.12 µM) | 0.21 (≈ 0.297 µM) | 0.47 (≈ 0.665 µM) | 0.29 (≈ 0.41 µM) | – | – | – | – | –
3 | COc1cc2c(Oc3ccc(NC(=O)c4cn(-c5ccccc5Cl)c5ccccc5c4=O)cc3F)ccnc2cc1OCCCN1CCC(C)CC1 [Example 54, N-(3-fluoro-4-((6-methoxy-7-(3-(4-methylpiperidin-1-yl)propoxy)quinolin-4-yl)oxy)phenyl)-1-(2-chlorophenyl)-4-oxo-1,4-dihydroquinoline-3-carboxamide] | 971 | 0.63 (≈ 0.874 µM) | 0.63 (≈ 0.874 µM) | 0.14 (≈ 0.194 µM) | 0.49 (≈ 0.679 µM) | 0.52 (≈ 0.721 µM) | – | – | – | – | –
4 | COc1cc2c(Oc3ccc(NC(=O)c4cn(-c5ccccc5Cl)c5ccccc5c4=O)cc3F)ccnc2cc1OCCCN1CCCC1 [Example 55, N-(3-fluoro-4-((6-methoxy-7-(3-(pyrrolidin-1-yl)propoxy)quinolin-4-yl)oxy)phenyl)-1-(2-chlorophenyl)-4-oxo-1,4-dihydroquinoline-3-carboxamide] | 1300 | – | – | – | – | – | 0.37 (≈ 0.534 µM) | 0.74 (≈ 1.07 µM) | 0.18 (≈ 0.26 µM) | 0.29 (≈ 0.418 µM) | 0.53 (≈ 0.765 µM)
5 | COc1cc2c(Oc3ccc(NC(=O)c4cn(-c5ccccc5Cl)c5ccccc5c4=O)cc3F)ccnc2cc1OCCCN1CCN(C)CC1 [Example 56, N-(3-fluoro-4-((6-methoxy-7-(3-(4-methylpiperazin-1-yl)propoxy)quinolin-4-yl)oxy)phenyl)-1-(2-chlorophenyl)-4-oxo-1,4-dihydroquinoline-3-carboxamide] | 138 | 0.2 (≈ 0.277 µM) | 0.75 (≈ 1.04 µM) | 0.12 (≈ 0.166 µM) | 0.21 (≈ 0.291 µM) | 0.74 (≈ 1.02 µM) | – | – | – | – | –
6 | COc1cc2c(Oc3ccc(NC(=O)c4cn(-c5ccccc5C(F)(F)F)c5ccccc5c4=O)cc3F)ccnc2cc1OCCCN1CCC(C)CC1 [Example 57, N-(3-fluoro-4-((6-methoxy-7-(3-(4-methylpiperidin-1-yl)propoxy)quinolin-4-yl)oxy)phenyl)-4-oxo-1-(2-(trifluoromethyl)phenyl)-1,4-dihydroquinoline-3-carboxamide] | 1060 | 0.87 (≈ 1.15 µM) | 1.3 (≈ 1.72 µM) | 1.1 (≈ 1.46 µM) | 0.91 (≈ 1.21 µM) | 0.58 (≈ 0.768 µM) | – | – | – | – | –
7 | COc1cc2c(Oc3ccc(NC(=O)c4nn(-c5ccc(Cl)cc5)c5ccccc5c4=O)cc3F)cnnc2cc1OCCCN1CCOCC1 [Example 66, N-(3-fluoro-4-((6-methoxy-7-(3-(morpholin-4-yl)propoxy)cinnolin-4-yl)oxy)phenyl)-1-(4-chlorophenyl)-4-oxo-1,4-dihydrocinnoline-3-carboxamide] | 562 | 1.4 (≈ 1.97 µM) | 0.89 (≈ 1.25 µM) | 2.1 (≈ 2.95 µM) | 2.4 (≈ 3.37 µM) | 1.7 (≈ 2.39 µM) | – | – | – | – | –
8 | COc1cc2c(Oc3ccc(NC(=O)c4nn(-c5ccc(Cl)cc5)c5ccccc5c4=O)cc3F)cnnc2cc1OCCCN1CCC(C)CC1 [Example 67, N-(3-fluoro-4-((6-methoxy-7-(3-(4-methylpiperidin-1-yl)propoxy)cinnolin-4-yl)oxy)phenyl)-1-(4-chlorophenyl)-4-oxo-1,4-dihydrocinnoline-3-carboxamide] | 1520 | 0.96 (≈ 1.33 µM) | 2.5 (≈ 3.46 µM) | 1.7 (≈ 2.35 µM) | 2.2 (≈ 3.04 µM) | 1.6 (≈ 2.21 µM) | – | – | – | – | –
